Series [1] in a line: Lipid nanoparticle size and polydispersity index by dynamic light scattering (Malvern Zetasizer). It is filed as physicochemical. Conditions: hEPO mRNA LNP, Process A, Cationic Lipid:DMG-PEG2000:Cholesterol:DOPE 40:1.5:28.5:30 mol %, N/P 4. From the text:
The lipid nanoparticles in the examples of the present invention were formulated using Process A of WO 2018/089801 (see, e.g., Example 1 and FIG. 1 of WO 2018/089801). Process A (“A”) relates to a conventional method of encapsulating mRNA by mixing mRNA with a mixture of lipids, without first pre-forming the lipids into lipid nanoparticles. In an exemplary process, an ethanolic solution of a mixture of lipids (cationic lipid, phosphatidylethanolamine, cholesterol, and polyethylene glycol-lipid) at a fixed lipid to mRNA ratio were combined with an aqueous buffered solution of target mRNA at an acidic pH under controlled conditions to yield a suspension of uniform LNPs. After ultrafiltration and diafiltration into a suitable diluent system, the resulting nanoparticle suspensions were diluted to final concentration, filtered, and stored frozen at −80° C. until use.
(§1) Lipid nanoparticle formulations of Table 1 were prepared by Process A. All of the lipid nanoparticle formulations comprised hEPO mRNA and the different lipids (Cationic Lipid: DMG-PEG2000: Cholesterol: DOPE) in mol % ratios of 40:1.5:28.5:30 (Cationic Lipid: DMG-PEG2000: Cholesterol: DOPE).
The Polydispersity Index (Pdl) of lipid nanoparticles can be determined by diluting the formulation in 10% trehalose at about 0.1 mg/ml mRNA concentration and then measuring the size on Malvern zetasizer. The lipid nanoparticle size can be obtained with Malvern Zetasizer Nano-ZS.
Dynamic light scattering (DLS) measurements were performed using a Malvern Instruments Zetasizer with a backscattering detector angle of 173° and a 4-mW, 633-nm He—Ne laser (Worcestershire, UK). The samples were analyzed by diluting in 10% Trehalose and measuring the size and Poly dispersity Index (PDI) in an optical grade polystyrene cuvette.

The nature of series [2]: mRNA encapsulation efficiency of lipid nanoparticles (RiboGreen assay). The class given is physicochemical. The note with it: hEPO mRNA LNP, Process A, Cationic Lipid:DMG-PEG2000:Cholesterol:DOPE 40:1.5:28.5:30 mol %, N/P 4.
Description: In embodiments, the lipid nanoparticle encapsulates a nucleic acid, optionally an mRNA encoding a peptide or protein. In embodiments, the lipid nanoparticle encapsulates an mRNA encoding a peptide or protein, optionally for use in a vaccine. In embodiments, the peptide is an antigen. As used herein, the phrase “encapsulation percentage” refers to the fraction of therapeutic agent (e.g. mRNA) that is effectively encapsulated within a liposomal-based vehicle (e.g. a lipid nanoparticle) relative to the initial fraction of therapeutic agent present in the lipid phase. In embodiments, the lipid nanoparticles have an encapsulation percentage for mRNA of at least 50%. In embodiments, the lipid nanoparticles have an encapsulation percentage for mRNA of at least 55%. In embodiments, the lipid nanoparticles have an encapsulation percentage for mRNA of at least 60%. In embodiments, the lipid nanoparticles have an encapsulation percentage for mRNA of at least 65%. In embodiments, the lipid nanoparticles have an encapsulation percentage for mRNA of at least 70%. In embodiments, the lipid nanoparticles have an encapsulation percentage for mRNA of at least 75%. In embodiments, the lipid nanoparticles have an encapsulation percentage for mRNA of at least 80%. In embodiments, the lipid nanoparticles have an encapsulation percentage for mRNA of at least 85%. In embodiments, the lipid nanoparticles have an encapsulation percentage for mRNA of at least 90%. In embodiments, the lipid nanoparticles have an encapsulation percentage for mRNA of at least 95%. In embodiments, the encapsulation percentage is calculated by performing the Ribogreen assay (Invitrogen) with and without the presence of 0.1% Triton-X 100.
as §1
The RiboGreen Assay is a fluorescence-based method for the determination of mRNA concentration (Total and Free) and % encapsulation using Quant-iT™ RiboGreen® RNA reagent in mRNA containing lipid nanoparticles.
• To each of the standards (Blank, mRNA-1, mRNA-2. mRNA-3, mRNA-4, mRNA-5) and Samples (free mRNA and total mRNA), add 1.0 mL of 200-fold Ribogreen Reagent Solution and gently mix by inversion. This is a 2× Dilution. • Add 200 μL of each standard and sample in triplicate using the reverse pipetting technique in a 96-well Costar Black with Clear Background Plate. Ensure no bubbles are present in the plate before the fluorescence reading. • Read the fluorescence signal using the below instrument parameters: • Read Type: Fluorescence, Bottom Read • Excitation: 485 nm; Cut-off: 515 nm; Emission: 530 nm • Plate Type: 96-well Costar Black with Clear Background
The average fluorescence from each calibration standard is plotted against the concentration to generate a linear calibration curve using the MS Excel software. The coefficient of determination (R^2) of calibration curve must be R^2>0.99.
[formula] • Where, • Y=average fluorescence value • m: slope • x: concentration (pg/mL) • c: y-intercept • Using the linear equation, calculate the concentration of free and total mRNA concentration in the test sample by replacing the y value in the equation with the average fluorescence value of each respective sample • Once the concentration is determined, the actual concentration in the sample can be back-calculated by multiplying the concentration in the test sample with the dilution factor (DF) as follows:
[formula] [formula] • Concentration of encapsulated mRNA can be determined by subtracting the concentration of free mRNA from the total mRNA. • % Encapsulation can then be calculated by taking the ratio of encapsulated mRNA over total mRNA and multiplying the result with 100.

The next series relates to BALB/cJ mice. Nature of the series: Delivery of hEPO mRNA by intramuscular administration of LNPs; serum hEPO by ELISA. It is filed as in vivo, Mouse. The note with it: for hEPO 24 Hr (ng/ml) Mean: mouse serum 24 hours post single IM injection of 0.1 μg hEPO mRNA LNP. The gist of the method: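 Female BALB/cJ mice, 6-8 weeks, given a single IM injection of 0.1 μg hEPO mRNA LNPs into right gastrocnemius under light isoflurane. Serum taken at 6 and 24 h post dose and terminally by cardiac puncture; hEPO measured by ELISA ("shaker" protocol), samples diluted 1:40 to 1:100.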
Background: ELISA stands for enzyme-linked immunosorbent assay.

Series [3] relates to A/Tasmania/503/2020 (H3N2) virus. Kind of series: Influenza titer: HAI assay on sera of mice immunized IM with Modified Tasmania H3 mRNA-lipid nanoparticles. Conditions: Balb/c mice, 0.4 ug per mouse Modified Tasmania H3 mRNA-LNP IM on day 0 and day 21.
[4] abbreviates: Table 3, isomannide-derived lipids, mouse serum 6 hours post single IM injection of 0.1 μg hEPO mRNA LNP.
Setting [5] is: Table 2, isosorbide-derived lipids, mouse serum 6 hours post single IM injection of 0.1 μg hEPO mRNA LNP.
The mark [6] stands for this setting: Table 2, isosorbide-derived lipids.
[7] abbreviates: Table 4, further lipids, mouse serum 6 hours post IM injection of hEPO mRNA LNP as in example 3.

For the molecule `CCCCCCCCCCC(O)CN(CCCC(=O)O[C@H]1CO[C@H]2[C@@H]1OC[C@H]2OC(=O)CCCN(CC(O)CCCCCCCCCC)CC(O)CCCCCCCCCC)CC(O)CCCCCCCCCC` (stereo in doubt) [Compound 3], in series [1], the “Polydispersity Index (PDI)” value came to 0.11 and the “Size (nm)” value is 95 nm. The “Encapsulation efficiency (EE) %” value in series [2] worked out at 86%. In addition, the “hEPO 6 Hr (ng/mL) Mean” value in the series on BALB/cJ mice (setting [4]) came out at 37.4 ng/mL. In addition, the “hEPO 24 Hr (ng/ml) Mean” value in the series on BALB/cJ mice (Table 3, isomannide-derived lipids) amounted to 18.9 ng/mL. In addition, in series [3], the “HAI GMT” value was determined as 320.

For the molecule `CCCCCCCCCCC(O)CN(CCCC(=O)O[C@H]1CO[C@H]2[C@@H]1OC[C@H]2OC(=O)CCCN(CC(O)CCCCCCCCCC)CC(O)CCCCCCCCCC)CC(O)CCCCCCCCCC` (stereo partly shown) [Compound 24], in series [1], the “Polydispersity Index (PDI)” value worked out at 0.11 and the “Size (nm)” value was 88 nm. The “Encapsulation efficiency (EE) %” value in series [2] is reported as 83%. The “hEPO 6 Hr (ng/ml) Mean” value in the series on BALB/cJ mice (setting [5]) worked out at 30.2 ng/mL. In addition, the “hEPO 24 Hr (ng/ml) Mean” value in the series with BALB/cJ mice (setting [6]) is 19.4 ng/mL. The “HAI GMT” value in series [3] amounted to 190.

As to `CCCCCCCCCCC(O)CN(CCCOC(=O)O[C@@H]1CO[C@H]2[C@@H]1OC[C@H]2OC(=O)OCCCN(CC(O)CCCCCCCCCC)CC(O)CCCCCCCCCC)CC(O)CCCCCCCCCC` (stereo partly shown) [Compound 36], in series [1], the “Polydispersity Index (PDI)” value is 0.2 and the “Size (nm)” value was 94 nm. The “Encapsulation efficiency (EE) %” value in series [2] was 88%. In the series on BALB/cJ mice (setting [7]), the “hEPO 6 Hr (ng/ml) Mean” value was 31.7 ng/mL.

Take `CCCCCCCCCCCCC(O)CN(CCCOC(=O)O[C@@H]1CO[C@H]2[C@@H]1OC[C@H]2OC(=O)OCCCN(CC(O)CCCCCCCCCCCC)CC(O)CCCCCCCCCCCC)CC(O)CCCCCCCCCCCC` (stereo partly shown) [Compound 37]: in series [1], the “Polydispersity Index (PDI)” value turned out to be 0.25 and the “Size (nm)” value is 65 nm. Besides, in series [2], the “Encapsulation efficiency (EE) %” value was determined as 95%. In addition, the “hEPO 6 Hr (ng/mL) Mean” value with BALB/cJ mice (setting [4]) was 27.4 ng/mL.

`CCCCCCCCCCC(O)CN(CCCCOC(=O)O[C@@H]1CO[C@H]2[C@@H]1OC[C@H]2OC(=O)OCCCCN(CC(O)CCCCCCCCCC)CC(O)CCCCCCCCCC)CC(O)CCCCCCCCCC` (stereo partly shown) [Compound 38]: in series [1], the “Polydispersity Index (PDI)” value is on record as 0.12 and the “Size (nm)” value is recorded as 69 nm. Moreover, in series [2], the “Encapsulation efficiency (EE) %” value turned out to be 72%. In the series on BALB/cJ mice (setting [4]), the “hEPO 6 Hr (ng/mL) Mean” value is 22.6 ng/mL.

Take `CCCCCCCCCCC(O)CN(CCCOC(=O)O[C@H]1CO[C@H]2[C@@H]1OC[C@H]2OC(=O)OCCCN(CC(O)CCCCCCCCCC)CC(O)CCCCCCCCCC)CC(O)CCCCCCCCCC` (stereo partly shown) [Compound 40]: in series [1], the “Polydispersity Index (PDI)” value came out at 0.11 and the “Size (nm)” value is on record as 84 nm. In series [2], the “Encapsulation efficiency (EE) %” value came out at 66%. In the series on BALB/cJ mice (setting [5]), the “hEPO 6 Hr (ng/ml) Mean” value stood at 11.9 ng/mL. For the same molecule, the “hEPO 24 Hr (ng/ml) Mean” value in the series on BALB/cJ mice (setting [6]) worked out at 7 ng/mL.

For `CCCCCCCCC(O)CN(CCCC(=O)N[C@H]1CO[C@H]2[C@@H]1OC[C@@H]2NC(=O)CCCN(CC(O)CCCCCCCC)CC(O)CCCCCCCC)CC(O)CCCCCCCC` (stereo partly shown) [Compound 51], in series [1], the “Polydispersity Index (PDI)” value is listed as 0.12 and the “Size (nm)” value came to 71 nm. Also, in series [2], the “Encapsulation efficiency (EE) %” value is on record as 81%. For the same molecule, in the series on BALB/cJ mice (setting [7]), the “hEPO 6 Hr (ng/ml) Mean” value was 47.6 ng/mL.

Take `CCCCCCCCCCC(O)CN(CCCC(=O)N[C@H]1CO[C@H]2[C@@H]1OC[C@@H]2NC(=O)CCCN(CC(O)CCCCCCCCCC)CC(O)CCCCCCCCCC)CC(O)CCCCCCCCCC` (stereo partly shown) [Compound 52]: in series [1], the “Polydispersity Index (PDI)” value is on record as 0.14 and the “Size (nm)” value stood at 74 nm. Also, in series [2], the “Encapsulation efficiency (EE) %” value was 95%. Besides, the “hEPO 6 Hr (ng/ml) Mean” value in the series on BALB/cJ mice (setting [7]) was determined as 72.7 ng/mL.

`CCCCCCCCCCCCC(O)CN(CCCOC(=O)N[C@H]1CO[C@H]2[C@@H]1OC[C@@H]2NC(=O)OCCCN(CC(O)CCCCCCCCCCCC)CC(O)CCCCCCCCCCCC)CC(O)CCCCCCCCCCCC` (stereo partly shown) [Compound 53]: in series [1], the “Polydispersity Index (PDI)” value is recorded as 0.2 and the “Size (nm)” value amounted to 97 nm. In addition, in series [2], the “Encapsulation efficiency (EE) %” value turned out to be 96%. Also, the “hEPO 6 Hr (ng/ml) Mean” value in the series on BALB/cJ mice (setting [7]) came to 72.0 ng/mL.

Turning to `CCCCCCCCCCC(O)CN(CCCSC(=O)N[C@H]1CO[C@H]2[C@@H]1OC[C@@H]2NC(=O)SCCCN(CC(O)CCCCCCCCCC)CC(O)CCCCCCCCCC)CC(O)CCCCCCCCCC` (stereo partly shown) [Compound 54], in series [1], the “Polydispersity Index (PDI)” value amounted to 1.6 and the “Size (nm)” value came out at 79 nm. Besides, the “Encapsulation efficiency (EE) %” value in series [2] is given as 87%. Besides, the “hEPO 6 Hr (ng/ml) Mean” value in the series with BALB/cJ mice (setting [7]) is 12.0 ng/mL.

As to `CCCCCCCCCCCCC(O)CN(CCCC(=O)N[C@H]1CO[C@H]2[C@@H]1OC[C@@H]2NC(=O)CCCN(CC(O)CCCCCCCCCCCC)CC(O)CCCCCCCCCCCC)CC(O)CCCCCCCCCCCC` (stereo partly shown) [Compound 55], in series [1], the “Polydispersity Index (PDI)” value was 0.15 and the “Size (nm)” value is given as 101 nm. For the same molecule, the “Encapsulation efficiency (EE) %” value in series [2] came to 99%. Moreover, the “hEPO 6 Hr (ng/ml) Mean” value with BALB/cJ mice (setting [7]) was determined as 30.9 ng/mL.

(Values after patent publication US20260224486A1, “DIANHYDROHEXITOL BASED IONIZABLE LIPIDS FOR NUCLEIC ACID DELIVERY” (SANOFI PASTEUR INC., priority 2023, published 2026).)
